Experimental data: patent US6664214B1, “Uracil compounds and use thereof” (Sumitomo Chemical Company, Limited, priority 1999, dated 2003)

Assays:
Parameters in all cases: key: 0: little difference in the degree of germination or growth between the treated plants and the untreated plants at the time of examination; 10: the treated plants died completely or their germination or growth was completely inhibited
[1] = system: barnyardgrass; assay: Test Example 4: soil surface treatment on upland field (Table 5); format: in vivo, Echinochloa crus-galli; settings: 500 g/ha active ingredient, examined 12 days after application, index 0-10
Text: (§1) In the examples, the compounds are identified by the Compound Numbers as in Tables 1 to 3. […] A cylindrical plastic pot having a diameter of 10 cm and a depth of 10 cm was filled with soil and seeded ivyleaf morningglory, velvetleaf and barnyardgrass. Then each of compounds listed below was formulated into an emulsifiable concentrate according to Formulation Example 2 and then diluted to the prescribed amount with water and dilution was uniformly sprayed over the surface of the soil with sprayer at the rate of 1000 liters per hectare. After the application, the test plants were grown in a greenhouse for 12 days, and the herbicidal activity was examined.

[2] = system: velvetleaf; assay: as above; format: in vivo, Abutilon theophrasti; settings: 500 g/ha active ingredient, examined 12 days after application, index 0-10
Text: as §1

[3] = system: velvetleaf; assay: Test Example 3: foliar treatment on upland field (Table 4); format: in vivo, Abutilon theophrasti; settings: examined 16 days after application, index 0-10
Procedure: (§2) In the examples, the compounds are identified by the Compound Numbers as in Tables 1 to 3. […] A cylindrical plastic pot having a diameter of 10 cm and a depth of 10 cm was filled with soil and seeded with ivyleaf momingglory, velvetleaf and barnyardgrass. These test plants were grown in a greenhouse for 10 days. Then each of compounds listed below was formulated into an emulsifiable concentrate according to Formulation Example 2 and then diluted to the prescribed amount with water containing a spreading agent and the dilution was uniformly sprayed over the foliage of the test plants with sprayer at a rate of 1000 liters per hectare. After the application, the test plants were grown in the greenhouse for 16 days, and the herbicidal activity were determined.

[4] = system: barnyardgrass; assay: as above; format: in vivo, Echinochloa crus-galli; settings: examined 16 days after application, index 0-10
Procedure: as §2

[5] = system: ivyleaf morningglory; assay: as above; format: in vivo, Ipomoea hederacea; settings: examined 16 days after application, index 0-10
Procedure: as §2

[6] = system: ivyleaf morningglory; assay: Test Example 4: soil surface treatment on upland field (Table 5); format: in vivo, Ipomoea hederacea; settings: 500 g/ha active ingredient, examined 12 days after application, index 0-10
Text: as §1

[7] = system: large crabgrass; assay: Test Example 5: foliar treatment on upland field (Table 6); format: in vivo, Digitaria sanguinalis; settings: 125 g/ha, 19 days after application, index 0 to 10
Procedure: In the examples, the compounds are identified by the Compound Numbers as in Tables 1 to 3. […] A pot for plug seedlings seeded with large crabgrass. The test plant was grown in a greenhouse for 14 days, then transplanted into a plastic pot having an area of 17×12 cm^2 and a depth of 7 cm, and further the test plants were grown in the greenhouse for 8 days. Then each of compounds listed below was formulated into an emulsifiable concentrate according to Formulation Example 2 and then diluted to the prescribed amount with water containing a spreading agent and the dilution was uniformly sprayed over the foliage of the test plants with sprayer at a rate of 1000 liters per hectare. After the application, the test plants were grown in the greenhouse for 19 days, and the herbicidal activity were determined.

COC(=O)C(C)Oc1ccc(COc2cc(-n3c(=O)cc(C(F)(F)F)n(C)c3=O)c(F)cc2Cl)c(F)c1 (stereo not drawn) [Compound 1-242, Methyl 2-[4-({2-chloro-4-fluoro-5-[3-methyl-2,6-dioxo-4-(trifluoromethyl)-1,2,3,6-tetrahydropyrimidine-1-yl]phenoxy}methyl)-3-fluorophenoxy]propionate]
10: Herbicidal effect Barnyardgrass [1] | Herbicidal effect Velvetleaf [2] | Herbicidal effect Velvetleaf ([3]; 125 g/ha active ingredient) | Herbicidal effect Barnyardgrass ([4]; 125 g/ha active ingredient) | Herbicidal effect Ivyleaf morningglory ([5]; 125 g/ha active ingredient) | Herbicidal effect Ivyleaf morningglory [6] | Herbicidal effect Large crabgrass [7]

COC(=O)C(C)Oc1ccc(COc2cc(-n3c(=O)cc(C(F)(F)F)n(C)c3=O)c(F)cc2Cl)cc1C (stereo not drawn) [Compound 1-101, Methyl 2-[4-({2-chloro-4-fluoro-5-[3-methyl-2,6-dioxo-4-(trifluoromethyl)-1,2,3,6-tetrahydropyrimidine-1-yl]phenoxy}methyl)-2-methylphenoxy]propionate]
10: Herbicidal effect Barnyardgrass [1] | Herbicidal effect Velvetleaf [2] | Herbicidal effect Velvetleaf ([3]; 125 g/ha active ingredient) | Herbicidal effect Barnyardgrass ([4]; 125 g/ha active ingredient) | Herbicidal effect Ivyleaf morningglory ([5]; 125 g/ha active ingredient) | Herbicidal effect Ivyleaf morningglory [6] | Herbicidal effect Large crabgrass [7]

COC(=O)C(C)Oc1cc(COc2cc(-n3c(=O)cc(C(F)(F)F)n(C)c3=O)c(F)cc2Cl)ccc1OC (stereo not drawn) [Compound 2-61, Methyl 2-[5-({2-chloro-4-fluoro-5-[3-methyl-2,6-dioxo-4-(trifluoromethyl)-1,2,3,6-tetrahydropyrimidine-1-yl]phenoxy}methyl)-2-methoxyphenoxy]propionate]
10: Herbicidal effect Barnyardgrass [1] | Herbicidal effect Velvetleaf [2] | Herbicidal effect Velvetleaf ([3]; 125 g/ha active ingredient) | Herbicidal effect Barnyardgrass ([4]; 125 g/ha active ingredient) | Herbicidal effect Ivyleaf morningglory ([5]; 125 g/ha active ingredient) | Herbicidal effect Ivyleaf morningglory [6] | Herbicidal effect Large crabgrass [7]

COC(=O)C(C)Oc1ccc(Cl)c(COc2cc(-n3c(=O)cc(C(F)(F)F)n(C)c3=O)c(F)cc2Cl)c1Cl (stereo not drawn) [Compound 2-161, Methyl 2-[2,4-dichloro-3-({2-chloro-4-fluoro-5-[3-methyl-2,6-dioxo-4-(trifluoromethyl)-1,2,3,6-tetrahydropyrimidine-1-yl]phenoxy}methyl)phenoxy]propionate]
6: Herbicidal effect Ivyleaf morningglory [6]
5: Herbicidal effect Barnyardgrass [1]
10: Herbicidal effect Velvetleaf [2] | Herbicidal effect Velvetleaf ([3]; 125 g/ha active ingredient) | Herbicidal effect Barnyardgrass ([4]; 125 g/ha active ingredient) | Herbicidal effect Ivyleaf morningglory ([5]; 125 g/ha active ingredient) | Herbicidal effect Large crabgrass [7]

COC(=O)C(C)Oc1cccc(C(C)Oc2cc(-n3c(=O)cc(C(F)(F)F)n(C)c3=O)c(F)cc2Cl)c1 (stereo not drawn) [Compound 2-21, methyl 2-[3-(1-{2-chloro-4-fluoro-5-[3-methyl-2,6-dioxo-4-(trifluoromethyl)-1,2,3,6-tetrahydropyrimidine-1-yl]phenoxy}ethyl)phenoxy]propionate]
10: Herbicidal effect Barnyardgrass [1] | Herbicidal effect Velvetleaf [2] | Herbicidal effect Velvetleaf ([3]; 32 g/ha active ingredient) | Herbicidal effect Barnyardgrass ([4]; 32 g/ha active ingredient) | Herbicidal effect Ivyleaf morningglory ([5]; 32 g/ha active ingredient) | Herbicidal effect Ivyleaf morningglory [6] | Herbicidal effect Large crabgrass [7]

COC(=O)C(C)Oc1ccc(C(Oc2cc(-n3c(=O)cc(C(F)(F)F)n(C)c3=O)c(F)cc2Cl)c2ccccc2)cc1 (stereo not drawn) [Compound 1-246, Methyl 2-[4-({2-chloro-4-fluoro-5-[3-methyl-2,6-dioxo-4-(trifluoromethyl)-1,2,3,6-tetrahydropyrimidine-1-yl]phenoxy}(phenyl)methyl)phenoxy]propionate]
10: Herbicidal effect Barnyardgrass [1] | Herbicidal effect Velvetleaf [2] | Herbicidal effect Velvetleaf ([3]; 125 g/ha active ingredient) | Herbicidal effect Ivyleaf morningglory ([5]; 125 g/ha active ingredient) | Herbicidal effect Large crabgrass [7]
8: Herbicidal effect Barnyardgrass ([4]; 125 g/ha active ingredient) | Herbicidal effect Ivyleaf morningglory [6]

COC(=O)C(C)Oc1c(OC)cc(COc2cc(-n3c(=O)cc(C(F)(F)F)n(C)c3=O)c(F)cc2Cl)cc1OC (stereo not drawn) [Compound 1-238, Methyl 2-[4-({2-chloro-4-fluoro-5-[3-methyl-2,6-dioxo-4-(trifluoromethyl)-1,2,3,6-tetrahydropyrimidine-1-yl]phenoxy}methyl)-2,6-dimethoxyphenoxy]propionate]
8: Herbicidal effect Barnyardgrass [1]
9: Herbicidal effect Barnyardgrass ([4]; 125 g/ha active ingredient)
10: Herbicidal effect Velvetleaf [2] | Herbicidal effect Velvetleaf ([3]; 125 g/ha active ingredient) | Herbicidal effect Ivyleaf morningglory ([5]; 125 g/ha active ingredient) | Herbicidal effect Ivyleaf morningglory [6] | Herbicidal effect Large crabgrass [7]

COC(=O)C(C)Oc1cc(COc2cc(-n3c(=O)cc(C(F)(F)F)n(C)c3=O)c(F)cc2Cl)ccc1C (stereo not drawn) [Compound 2-101, Methyl 2-[5-({2-chloro-4-fluoro-5-[3-methyl-2,6-dioxo-4-(trifluoromethyl)-1,2,3,6-tetrahydropyrimidine-1-yl]phenoxy}methyl)-2-methylphenoxy]propionate]
10: Herbicidal effect Barnyardgrass [1] | Herbicidal effect Velvetleaf [2] | Herbicidal effect Velvetleaf ([3]; 125 g/ha active ingredient) | Herbicidal effect Barnyardgrass ([4]; 125 g/ha active ingredient) | Herbicidal effect Ivyleaf morningglory ([5]; 125 g/ha active ingredient) | Herbicidal effect Ivyleaf morningglory [6] | Herbicidal effect Large crabgrass [7]

CCOC(=O)C(C)Oc1ccc(COc2cc(-n3c(=O)cc(C(F)(F)F)n(C)c3=O)c(F)cc2Cl)cc1 (stereo not drawn) [Compound 1-2, Ethyl 2-[4-({2-chloro-4-fluoro-5-[3-methyl-2,6-dioxo-4-(trifluoromethyl)-1,2,3,6-tetrahydropyrimidine-1-yl]phenoxy}methyl)phenoxy]propionate]
10: Herbicidal effect Barnyardgrass [1] | Herbicidal effect Velvetleaf [2] | Herbicidal effect Velvetleaf ([3]; 125 g/ha active ingredient) | Herbicidal effect Barnyardgrass ([4]; 125 g/ha active ingredient) | Herbicidal effect Ivyleaf morningglory ([5]; 125 g/ha active ingredient) | Herbicidal effect Ivyleaf morningglory [6] | Herbicidal effect Large crabgrass [7]

COC(=O)C(C)Oc1ccc(COc2cc(-n3c(=O)cc(C(F)(F)F)n(C)c3=O)c(F)cc2Cl)cc1OC (stereo not drawn) [Compound 1-61, Methyl 2-[4-({2-chloro-4-fluoro-5-[3-methyl-2,6-dioxo-4-(trifluoromethyl)-1,2,3,6-tetrahydropyrimidine-1-yl]phenoxy}methyl)-2-methoxyphenoxy]propionate]
10: Herbicidal effect Barnyardgrass [1] | Herbicidal effect Velvetleaf [2] | Herbicidal effect Velvetleaf ([3]; 125 g/ha active ingredient) | Herbicidal effect Barnyardgrass ([4]; 125 g/ha active ingredient) | Herbicidal effect Ivyleaf morningglory ([5]; 125 g/ha active ingredient) | Herbicidal effect Ivyleaf morningglory [6] | Herbicidal effect Large crabgrass [7]

CCOC(=O)C(C)Oc1ccc(COc2cc(-n3c(=O)cc(C(F)(F)F)n(C)c3=O)c(F)cc2Cl)cc1Cl (stereo not drawn) [Compound 1-42, Ethyl 2-[2-chloro-4-({2-chloro-4-fluoro-5-[3-methyl-2,6-dioxo-4-(trifluoromethyl)-1,2,3,6-tetrahydropyrimidine-1-yl]phenoxy}methyl)phenoxy]propionate]
10: Herbicidal effect Velvetleaf [2] | Herbicidal effect Velvetleaf ([3]; 125 g/ha active ingredient) | Herbicidal effect Barnyardgrass ([4]; 125 g/ha active ingredient) | Herbicidal effect Ivyleaf morningglory ([5]; 125 g/ha active ingredient) | Herbicidal effect Ivyleaf morningglory [6] | Herbicidal effect Large crabgrass [7]
8: Herbicidal effect Barnyardgrass [1]

COC(=O)C(C)Oc1ccc(C(C)Oc2cc(-n3c(=O)cc(C(F)(F)F)n(C)c3=O)c(F)cc2Cl)cc1 (stereo not drawn) [Compound 1-21, Methyl 2-[4-(1-{2-chloro-4-fluoro-5-[3-methyl-2,6-dioxo-4-(trifluoromethyl)-1,2,3,6-tetrahydropyrimidine-1-yl]phenoxy}ethyl)phenoxy]propionate]
10: Herbicidal effect Barnyardgrass [1] | Herbicidal effect Velvetleaf [2] | Herbicidal effect Velvetleaf ([3]; 125 g/ha active ingredient) | Herbicidal effect Barnyardgrass ([4]; 125 g/ha active ingredient) | Herbicidal effect Ivyleaf morningglory ([5]; 125 g/ha active ingredient) | Herbicidal effect Ivyleaf morningglory [6] | Herbicidal effect Large crabgrass [7]
